Assay results from US5594001A, “Polycyclic systems, and derivatives thereof, as neurotransmitter release enhancers useful in the treatment of cognitive disorders” (The DuPont Merck Pharmaceutical Company, priority 1994, dated 1997).

How the values were obtained:
[1] = test system: ACh level in the rat hippocampus; assay: Microdialysis, ACh levels in the rat hippocampus in vivo; design: species or system rat (male Wistar); conditions: Table IV
Summary of the method: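 Male Wistar rats with dorsal hippocampal probes were perfused with aCSF containing 100 μM physostigmine, and 20-min dialysates were assayed by HPLC-EC. After 3 baseline samples, drug or vehicle was given and sampling continued 3 h. ACh peak heights are expressed as percent change over mean baseline.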

[2] = test system: stimulus-induced acetylcholine release, slices from the parietal cortex; assay: Neurotransmitter (ACh) release assay, rat cortex slices, K+ stimulated; type: cell-based, rat (male Wistar); conditions: Table II, 10 μM, % increase of drug-induced ACh release
Summary of the method: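 Male Wistar rat parietal cortex slices prelabelled 30 min at 37 °C with 3H-choline, then superfused at 37 °C with Krebs-Ringer containing […] hemicholinium-3 and collected in 4 min fractions. Release evoked twice by 4 min 25 mM K+; compound present during the second stimulus, with S2/S1 tritium ratio compared with drug-free controls.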

[3] = test system: memory disruption induced by hypoxia, male CD rats; assay: Rat Passive Avoidance (PA) Hypoxia Induced Amnesia; type: in vivo, rat (male CD); conditions: Table II; SC; median retention latency vs vehicle
Text: Rat Passive Avoidance (PA) Hypoxia Induced Amnesia:
Unfasted male CD rats, weighing between 165-210 grams, were trained in a PA apparatus using the following procedure: rats were placed in the clear side of the two compartment chamber and allowed 90 seconds to enter the dark compartment. Ten seconds after entering the dark chamber, a 3 second footshock (1.0 mA) was applied to the grid floor followed by an additional 10 second delay, and another 3 second footshock was applied. Retentions were tested 4 hours later. The rats were allowed 300 seconds to enter the dark compartment; time was taken. Memory disruption was induced by exposing the rats to a gas mixture containing 6.5% oxygen supplemented with nitrogen for 30 minutes before passive avoidance training. Doses of the test compound were administered (0.1 ml/100 g, SC.) relative to time of PA training.

SMILES: O=C1N(c2ccccc2)c2ccccc2C1(Cc1ccncc1)Cc1ccncc1 [linopirdine, 3,3-bis-(4-pyridinylmethyl)-1-phenylindolin-2-one, reference compound]
- AUC, Area % under the curve ([1]; 5 mg/kg, vehicle water): 83 ± 73%
- Peak, maximal % increase of ACh release over baseline ([1]; 5 mg/kg, vehicle water): 50 ± 16%
- time of Peak after administration ([1]; 5 mg/kg, vehicle water): 40 min
- Duration, minutes of release above statistical significance ([1]; 5 mg/kg, vehicle water, NSP = no significant points): 20 min
- AUC, Area % under the curve ([1]; 10 mg/kg, vehicle methocel): 212 ± 61%
- Duration, minutes of release above statistical significance ([1]; 10 mg/kg, vehicle methocel): 100 min
- Peak, maximal % increase of ACh release over baseline ([1]; 10 mg/kg, vehicle methocel): 62 ± 15%
- time of Peak after administration ([1]; 10 mg/kg, vehicle methocel): 40 min
- AUC, Area % under the curve ([1]; 10 mg/kg, vehicle water): 191 ± 68%
- Duration, minutes of release above statistical significance ([1]; 10 mg/kg, vehicle water): 60 min
- Peak, maximal % increase of ACh release over baseline ([1]; 10 mg/kg, vehicle water): 56 ± 7%
- time of Peak after administration ([1]; 10 mg/kg, vehicle water): 40 min
- AUC, Area % under the curve ([1]; 20 mg/kg, vehicle methocel): 600 ± 71%
- Duration, minutes of release above statistical significance ([1]; 20 mg/kg, vehicle methocel): 140 min
- Peak, maximal % increase of ACh release over baseline ([1]; 20 mg/kg, vehicle methocel): 117 ± 36%
- time of Peak after administration ([1]; 20 mg/kg, vehicle methocel): 40 min
- AUC, Area % under the curve ([1]; 20 mg/kg, vehicle water): 315 ± 108%
- Duration, minutes of release above statistical significance ([1]; 20 mg/kg, vehicle water): 100 min
- Peak, maximal % increase of ACh release over baseline ([1]; 20 mg/kg, vehicle water): 68 ± 26%
- time of Peak after administration ([1]; 20 mg/kg, vehicle water): 100 min
- activation at 10 µM [2]: 408%
- PA Hypoxia [3]: Active
